# Test results reported in US7842802B2, “Vinorelbine derivatives” (priority 2003, dated 2010).
# Read-outs that look alike come from different tables or passages of the source.
# Experiments:
# [1] = test system: HeLa S-3 human cervical carcinoma cell line; assay: HeLa GI50 determination (SRB); type: cell-based; settings: Homo sapiens, HeLa S3, 48 h, read-out: HeLa Cells GI50
# Procedure: Growth inhibition (GI50) values were measured on the human cervical carcinoma cell line, HeLa S-3, which were selected for growth on plastic. The HeLa cell assay was based on the description of Skehan et al., J. Natl. Cancer Inst., 82:1107-12 (1990), which is hereby incorporated by reference in its entirety. HeLa cells were plated at 2×10^4 cells/well in 96 well plates. One day later, a control plate was fixed by the addition of TCA to 5%. After five rinses with tap water, the plate was air-dried and stored at 4° C. Test compounds were added to the remaining plates at 10-fold dilutions. Two days later, all plates were fixed as described above. Cells were then stained by the addition of 100 μL per well of 0.4% sulforhodamine B (SRB) in 1% acetic acid for 30 min at 4° C. Wells were then quickly rinsed 5× with 1% acetic acid and allowed to air dry. The SRB was then solubilized by the addition of 100 μL per well of unbuffered 10 mM Tris base. Dye was quantified by measuring absorbance at 490 nm on a Molecular Devices microplate reader. Growth inhibition was calculated according to the following equation: GI=100×(T−T0)/(C−T0), where the optical density (OD) of the test well after 2 days of treatment was T, the OD of the wells in the control plate on day 0 was T0 and C was the OD of untreated wells. Plots of percent growth inhibition versus inhibitor concentration were used to determine the GI50.
# [2] = test system: MCF-7 human breast carcinoma line; assay: MCF-7 GI50 determination (crystal violet); type: cell-based; settings: Homo sapiens, MCF7, 96 h, read-out: MCF-7 Cells GI50
# Procedure: Growth inhibition (GI50) values were measured on the human breast carcinoma line, MCF-7. MCF-7 cells were plated at 2×10^4 cells/well in 96 well plates and grown for 24 hours in drug free media. On day 2, test compounds were added to the plates at 10-fold dilutions. Four days later, cells were fixed by the addition of glutaraldehyde to 0.75%. After 30 min, the fixed cells were extensively rinsed with distilled water and dried at room temperature for one hour. The cells were then stained with a 0.2% crystal violet solution for one hour at room temperature. Unbound stain was removed by ten rinses with tap water and plates were allowed to air dry for 30 min. The crystal violet was then solubilized by the addition of 10% acetic acid for 15 min and quantified by measuring absorbance at 570 nm on a Molecular Devices microplate reader. Growth inhibition was calculated according to the following equation: GI=[…], where the optical density (OD) of the test well after 4 days of treatment was T, the OD of the wells in the control plate on day 0 was T0. Plots of percent growth inhibition versus inhibitor concentration were used to determine the GI50.
# [3] = HeLa S-3, 2 days of treatment, SRB
# [4] = MCF-7, 4 days of treatment, crystal violet
smiles,measurement,setting,value
"CCC1=C[C@H]2CN(C1)Cc1c([nH]c3ccc(-c4cccc(O)c4)cc13)[C@@](C(=O)OC)(c1cc3c(cc1OC)N(C)[C@H]1[C@@](O)(C(=O)OC)[C@H](OC(C)=O)C4C(CC)=CCN5CC[C@]31[C@H]45)C2 (stereo partly shown) [Example 31, 11′-(3-hydroxyphenyl) vinorelbine]",GI50,[1]; [3],300 nM
same,GI50,[2]; [4],600 nM
"CCC1=C[C@H]2CN(C1)Cc1c([nH]c3ccc(SCCCCO)cc13)[C@@](C(=O)OC)(c1cc3c(cc1OC)N(C)[C@H]1[C@@](O)(C(=O)OC)[C@H](OC(C)=O)C4C(CC)=CCN5CC[C@]31[C@H]45)C2 (stereo partly shown) [Example 12, 11′-(4-hydroxybutylsulfanyl)vinorelbine]",GI50,[1]; [3],20 nM
same,GI50,[2]; [4],40 nM
"C#Cc1ccc2[nH]c3c(c2c1)CN1CC(CC)=C[C@@H](C1)C[C@]3(C(=O)OC)c1cc2c(cc1OC)N(C)[C@H]1[C@@](O)(C(=O)OC)[C@H](OC(C)=O)C3C(CC)=CCN4CC[C@]21[C@H]34 (stereo partly shown) [Example 21, 11′-ethynylvinorelbine]",GI50,[1]; [3],0.4 nM
same,GI50,[2]; [4],5 nM
"CCC1=C[C@H]2CN(C1)Cc1c([nH]c3ccc(SC)cc13)[C@@](C(=O)OC)(c1cc3c(cc1OC)N(C)[C@H]1[C@@](O)(C(=O)OC)[C@H](OC(C)=O)C4C(CC)=CCN5CC[C@]31[C@H]45)C2 (stereo partly shown) [Example 10, 11′-(methylsulfanyl) vinorelbine]",GI50,[1]; [3],0.3 nM
same,GI50,[2]; [4],1 nM
"CCC1=C[C@H]2CN(C1)Cc1c([nH]c3ccc([S+]([O-])CCO)cc13)[C@@](C(=O)OC)(c1cc3c(cc1OC)N(C)[C@H]1[C@@](O)(C(=O)OC)[C@H](OC(C)=O)C4C(CC)=CCN5CC[C@]31[C@H]45)C2 (stereo partly shown) [Example 19, 11′-(3-hydroxyethylsulfinyl)vinorelbine]",GI50,[1]; [3],300 nM
same,GI50,[2]; [4],> 1000 nM
"CCC1=C[C@H]2CN(C1)Cc1c([nH]c3ccc(/C=C/C(=O)O)cc13)[C@@](C(=O)OC)(c1cc3c(cc1OC)N(C)[C@H]1[C@@](O)(C(=O)OC)[C@H](OC(C)=O)C4C(CC)=CCN5CC[C@]31[C@H]45)C2 (stereo partly shown) [Example 6, 11′-(carboxyvinyl) vinorelbine]",GI50,[1]; [3],800 nM
same,GI50,[2]; [4],> 1000 nM
"CCC1=C[C@H]2CN(C1)Cc1c([nH]c3ccc(I)cc13)[C@@](C(=O)OC)(c1cc3c(cc1OC)N(C)[C@H]1[C@@](OC)(C(=O)OC)[C@H](OC(C)=O)C4C(CC)=CCN5CC[C@]31[C@H]45)C2 (stereo partly shown) [Example 34, 3-methyl-11′-iodo vinorelbine]",GI50,[1]; [3],30 nM
same,GI50,[2]; [4],30 nM
"CCC1=C[C@H]2CN(C1)Cc1c([nH]c3ccc(-c4ccccc4)cc13)[C@@](C(=O)OC)(c1cc3c(cc1OC)N(C)[C@H]1[C@@](O)(C(=O)OC)[C@H](OC(C)=O)C4C(CC)=CCN5CC[C@]31[C@H]45)C2 (stereo partly shown) [Example 30, 11′-phenylvinorelbine]",GI50,[1]; [3],70 nM
same,GI50,[2]; [4],300 nM
"CCC1=C[C@H]2CN(C1)Cc1c([nH]c3ccc(C)cc13)[C@@](C(=O)OC)(c1cc3c(cc1OC)N(C)[C@H]1[C@@](OC)(C(=O)OC)[C@H](OC(C)=O)C4C(CC)=CCN5CC[C@]31[C@H]45)C2 (stereo partly shown) [Example 33, 3,11′-dimethyl vinorelbine]",GI50,[1]; [3],30 nM
same,GI50,[2]; [4],50 nM
"CCC1=C[C@H]2CN(C1)Cc1c([nH]c3ccc(SCc4ccccc4Cl)cc13)[C@@](C(=O)OC)(c1cc3c(cc1OC)N(C)[C@H]1[C@@](O)(C(=O)OC)[C@H](OC(C)=O)C4C(CC)=CCN5CC[C@]31[C@H]45)C2 (stereo partly shown) [Example 16, 11′-(2-chlorobenzylsulfanyl)vinorelbine]",GI50,[1]; [3],300 nM
same,GI50,[2]; [4],500 nM
"CCSc1ccc2[nH]c3c(c2c1)CN1CC(CC)=C[C@@H](C1)C[C@]3(C(=O)OC)c1cc2c(cc1OC)N(C)[C@H]1[C@@](O)(C(=O)OC)[C@H](OC(C)=O)C3C(CC)=CCN4CC[C@]21[C@H]34 (stereo partly shown) [Example 11, 11′-(ethylsulfanyl) vinorelbine]",GI50,[1]; [3],5 nM
same,GI50,[2]; [4],20 nM
"CCC1=C[C@H]2CN(C1)Cc1c([nH]c3ccc(/C=C/C(=O)OC(C)(C)C)cc13)[C@@](C(=O)OC)(c1cc3c(cc1OC)N(C)[C@H]1[C@@](O)(C(=O)OC)[C@H](OC(C)=O)C4C(CC)=CCN5CC[C@]31[C@H]45)C2 (stereo partly shown) [Example 5, 11′-(2-tert-butoxycarbonylvinyl) vinorelbine]",GI50,[1],300 nM
same,GI50,[2],600 nM
"CCC1=C[C@H]2CN(C1)Cc1c([nH]c3ccc(SCCCO)cc13)[C@@](C(=O)OC)(c1cc3c(cc1OC)N(C)[C@H]1[C@@](O)(C(=O)OC)[C@H](OC(C)=O)C4C(CC)=CCN5CC[C@]31[C@H]45)C2 (stereo partly shown) [Example 13, 11′-(3-hydroxypropylsulfanyl)vinorelbine]",GI50,[1]; [3],20 nM
same,GI50,[2]; [4],30 nM
"CCC1=C[C@H]2CN(C1)Cc1c([nH]c3ccc(C(=O)OCC(Cl)(Cl)Cl)cc13)[C@@](C(=O)OC)(c1cc3c(cc1OC)N(C)[C@H]1[C@@](O)(C(=O)OC)[C@H](OC(C)=O)C4C(CC)=CCN5CC[C@]31[C@H]45)C2 (stereo partly shown) [Example 28, 11′-(2,2,2-trichloroethoxycarbonyl) vinorelbine]",GI50,[1],300 nM
same,GI50,[2],> 1000 nM
"CCC1=C[C@H]2CN(C1)Cc1c([nH]c3ccc(SCCO)cc13)[C@@](C(=O)OC)(c1cc3c(cc1OC)N(C)[C@H]1[C@@](O)(C(=O)OC)[C@H](OC(C)=O)C4C(CC)=CCN5CC[C@]31[C@H]45)C2 (stereo partly shown) [Example 14, 11′-(2-hydroxyethylsulfanyl)vinorelbine]",GI50,[1]; [3],30 nM
same,GI50,[2]; [4],50 nM
"CCCCC#Cc1ccc2[nH]c3c(c2c1)CN1CC(CC)=C[C@@H](C1)C[C@]3(C(=O)OC)c1cc2c(cc1OC)N(C)[C@H]1[C@@](O)(C(=O)OC)[C@H](OC(C)=O)C3C(CC)=CCN4CC[C@]21[C@H]34 (stereo partly shown) [Example 22, 11′-hexynylvinorelbine]",GI50,[1]; [3],40 nM
same,GI50,[2]; [4],50 nM
"CCC1=C[C@H]2CN(C1)Cc1c([nH]c3ccc(SCCC(=O)OC)cc13)[C@@](C(=O)OC)(c1cc3c(cc1OC)N(C)[C@H]1[C@@](O)(C(=O)OC)[C@H](OC(C)=O)C4C(CC)=CCN5CC[C@]31[C@H]45)C2 (stereo partly shown) [Example 7, 11′-(methoxycarbonylethylsulfanyl) vinorelbine]",GI50,[1]; [3],200 nM
same,GI50,[2]; [4],400 nM
"CCC1=C[C@H]2CN(C1)Cc1c([nH]c3ccc(C(=O)OCC(Cl)Cl)cc13)[C@@](C(=O)OC)(c1cc3c(cc1OC)N(C)[C@H]1[C@@](O)(C(=O)OC)[C@H](OC(C)=O)C4C(CC)=CCN5CC[C@]31[C@H]45)C2 (stereo partly shown) [Example 29, 11′-(2,2-dichloroethoxycarbonyl)vinorelbine]",GI50,[1]; [3],70 nM
same,GI50,[2]; [4],300 nM
"CCC1=C[C@H]2CN(C1)Cc1c([nH]c3ccc(C(C)=O)cc13)[C@@](C(=O)OC)(c1cc3c(cc1OC)N(C)[C@H]1[C@@](O)(C(=O)OC)[C@H](OC(C)=O)C4C(CC)=CCN5CC[C@]31[C@H]45)C2 (stereo partly shown) [Example 26, 11′-acetylvinorelbine]",GI50,[1]; [3],4 nM
same,GI50,[2]; [4],20 nM
"CCC1=C[C@H]2CN(C1)Cc1c([nH]c3ccc(N)cc13)[C@@](C(=O)OC)(c1cc3c(cc1OC)N(C)[C@H]1[C@@](O)(C(=O)OC)[C@H](OC(C)=O)C4C(CC)=CCN5CC[C@]31[C@H]45)C2 (stereo partly shown) [Example 35, 11′-aminovinorelbine]",GI50,[1]; [3],300 nM
same,GI50,[2]; [4],600 nM
"CCCC(=O)/C=C/c1ccc2[nH]c3c(c2c1)CN1CC(CC)=C[C@@H](C1)C[C@]3(C(=O)OC)c1cc2c(cc1OC)N(C)[C@H]1[C@@](O)(C(=O)OC)[C@H](OC(C)=O)C3C(CC)=CCN4CC[C@]21[C@H]34 (stereo partly shown) [Example 4, 11′-(3-oxohex-1-enyl) vinorelbine]",GI50,[1]; [3],400 nM
same,GI50,[2]; [4],300 nM
"C=Cc1ccc2[nH]c3c(c2c1)CN1CC(CC)=C[C@@H](C1)C[C@]3(C(=O)OC)c1cc2c(cc1OC)N(C)[C@H]1[C@@](O)(C(=O)OC)[C@H](OC(C)=O)C3C(CC)=CCN4CC[C@]21[C@H]34 (stereo partly shown) [Example 3, 11′-vinylvinorelbine]",GI50,[1]; [3],3 nM
same,GI50,[2]; [4],7 nM
"CCC1=C[C@H]2CN(C1)Cc1c([nH]c3ccc(SCC(=O)OC)cc13)[C@@](C(=O)OC)(c1cc3c(cc1OC)N(C)[C@H]1[C@@](O)(C(=O)OC)[C@H](OC(C)=O)C4C(CC)=CCN5CC[C@]31[C@H]45)C2 (stereo partly shown) [Example 9, 11′-(methoxycarbonylmethylsulfanyl) vinorelbine]",GI50,[1]; [3],20 nM
same,GI50,[2]; [4],30 nM
